Data: PubChem BioAssay AID248 (DTP/NCI, 2004)
Inconclusive results and toxic doses are left out. Rule as the data show it: active = T/C of 150% or more; inactive = T/C below 125%.

Test system: L1210 leukemia ip in BDF1 mice, survival T/C
Assay: NCI In Vivo Anticancer Drug Screen. Data for tumor model L1210 Leukemia (intraperitoneal) in B6D2F1 (BDF1) mice
Conditions: endpoint: mean survival time, higher = longer survival
In short: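 Survival endpoint. Drug-treated group vs vehicle group, expressed as T divided by C. Tumor passaged by transplantation.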

[1] = dose: 100.0 mg/kg/injection, schedule: Q01DX001 (ip), vehicle: saline with Tween-80
[2] = dose: 200.0 mg/kg/injection, schedule: Q01DX001 (ip), vehicle: saline with Tween-80
[3] = dose: 25.0 mg/kg/injection, schedule: Q04DX003 (ip), vehicle: saline
[4] = dose: 50.0 mg/kg/injection, schedule: Q04DX003 (ip), vehicle: saline
[5] = dose: 100.0 mg/kg/injection, schedule: Q04DX003 (ip), vehicle: saline
[6] = dose: 200.0 mg/kg/injection, schedule: Q04DX003 (ip), vehicle: saline
[7] = dose: 400.0 mg/kg/injection, schedule: Q04DX003 (ip), vehicle: saline
[8] = dose: 100.0 mg/kg/injection, schedule: Q01DX001 (ip), vehicle: carboxymethylcellulose (CMC)
[9] = dose: 75.0 mg/kg/injection, schedule: Q04DX003 (ip), vehicle: saline
[10] = dose: 150.0 mg/kg/injection, schedule: Q04DX003 (ip), vehicle: saline
[11] = dose: 300.0 mg/kg/injection, schedule: Q04DX003 (ip), vehicle: saline
[12] = dose: 100.0 mg/kg/injection, schedule: Q01DX001 (ip), vehicle: saline
[13] = dose: 200.0 mg/kg/injection, schedule: Q01DX001 (ip), vehicle: saline
[14] = dose: 400.0 mg/kg/injection, schedule: Q01DX001 (ip), vehicle: saline
[15] = dose: 100.0 mg/kg/injection, schedule: Q04DX002 (ip), vehicle: Klucel (hydroxypropylcellulose) (HPC)
[16] = dose: 100.0 mg/kg/injection, schedule: Q04DX002 (ip), vehicle: saline
[17] = dose: 50.0 mg/kg/injection, schedule: Q01DX009 (ip), vehicle: saline
[18] = dose: 100.0 mg/kg/injection, schedule: Q01DX009 (ip), vehicle: saline
[19] = dose: 50.0 mg/kg/injection, schedule: Q01DX001 (ip), vehicle: carboxymethylcellulose (CMC)
[20] = dose: 200.0 mg/kg/injection, schedule: Q01DX001 (ip), vehicle: carboxymethylcellulose (CMC)
[21] = dose: 400.0 mg/kg/injection, schedule: Q01DX001 (ip), vehicle: carboxymethylcellulose (CMC)
[22] = dose: 25.0 mg/kg/injection, schedule: Q01DX009 (ip), vehicle: saline
[23] = dose: 100.0 mg/kg/injection, schedule: Q01DX009 (ip), vehicle: Klucel (hydroxypropylcellulose) (HPC)
[24] = dose: 200.0 mg/kg/injection, schedule: Q01DX009 (ip), vehicle: Klucel (hydroxypropylcellulose) (HPC)
[25] = dose: 200.0 mg/kg/injection, schedule: Q04DX003 (ip), vehicle: Klucel (hydroxypropylcellulose) (HPC)
[26] = dose: 400.0 mg/kg/injection, schedule: Q01DX009 (ip), vehicle: Klucel (hydroxypropylcellulose) (HPC)
[27] = dose: 400.0 mg/kg/injection, schedule: Q04DX003 (ip), vehicle: Klucel (hydroxypropylcellulose) (HPC)
[28] = dose: 10.0 mg/kg/injection, schedule: Q01DX001 (ip), vehicle: saline

Measured: T/C

CC1=C(Cl)CS(=O)(=O)C1
inactive: [1] 104 % of control | [2] 100 % of control

CC1(C)NC(=O)N(CCOS(C)(=O)=O)C1=O
inactive: [3] 101 % of control | [4] 98 % of control | [5] 104 % of control | [6] 104 % of control | [7] 93 % of control

S=P(NCCCCCNP(=S)(N1CC1)N1CC1)(N1CC1)N1CC1
inactive: [8] 91 % of control

CNC(=O)C1C2CCC(C2)C1C(=O)NC (stereo not given)
inactive: [9] 97 % of control | [5] 96 % of control | [10] 95 % of control | [6] 96 % of control | [11] 97 % of control | [7] 96 % of control

Cc1coc(NS(=O)(=O)c2ccc(N=Nc3c(N)nc(N)nc3N)cc2)c1C
inactive: [12] 97 % of control | [13] 94 % of control | [14] 97 % of control

C[n+]1cccc2cccc(O)c21
inactive: [15] 115 % of control

CC(=O)Nc1ccc2ncccc2c1[N+](=O)[O-]
inactive: dose: 100.0 mg/kg/injection, schedule: Q01DX001 (ip), vehicle: other 102 % of control | dose: 200.0 mg/kg/injection, schedule: Q01DX001 (ip), vehicle: other 100 % of control | dose: 400.0 mg/kg/injection, schedule: Q01DX001 (ip), vehicle: other 100 % of control

CCN(CC)CCC#N
inactive: dose: 50.0 mg/kg/injection, schedule: Q01DX001 (ip), vehicle: saline 94 % of control | [12] 94 % of control | [13] 100 % of control

CC[N+](CC)(CC)CCCCC[N+](CC)(CC)CC
inactive: dose: 12.5 mg/kg/injection, schedule: Q01DX009 (ip), vehicle: water 106 % of control | dose: 25.0 mg/kg/injection, schedule: Q01DX009 (ip), vehicle: water 101 % of control | dose: 25.0 mg/kg/injection, schedule: Q04DX003 (ip), vehicle: saline with Tween-80 94 % of control | dose: 50.0 mg/kg/injection, schedule: Q04DX003 (ip), vehicle: saline with Tween-80 94 % of control

CCCC(C(N)=O)N(CCO)CCO (stereo not given)
inactive: [16] 90 % of control | dose: 200.0 mg/kg/injection, schedule: Q04DX002 (ip), vehicle: saline 90 % of control | dose: 400.0 mg/kg/injection, schedule: Q04DX002 (ip), vehicle: saline 90 % of control

Nc1nc2c(c(-c3ccc(Cl)cc3)n1)CN(c1ccc(Br)cc1)C2=O
inactive: [17] 95 % of control | [18] 108 % of control | [5] 97 % of control | dose: 200.0 mg/kg/injection, schedule: Q01DX009 (ip), vehicle: saline 92 % of control | [6] 100 % of control | [7] 92 % of control

CN(Cc1ccccc1O)C1CC2CCC1(C)C2(C)C (stereo not given)
inactive: dose: 50.0 mg/kg/injection, schedule: Q04DX002 (ip), vehicle: saline 97 % of control | [16] 101 % of control

CCCCCC(=O)Oc1ccccc1C(=O)O
inactive: [19] 100 % of control | [8] 100 % of control | [20] 97 % of control | [21] 92 % of control

c1ccc2c[n+]3cc4ccccc4cc3cc2c1
inactive: dose: 6.25 mg/kg/injection, schedule: Q01DX009 (ip), vehicle: saline 101 % of control | dose: 12.5 mg/kg/injection, schedule: Q01DX009 (ip), vehicle: saline 104 % of control | [22] 104 % of control | dose: 35.0 mg/kg/injection, schedule: Q01DX009 (ip), vehicle: saline 95 % of control

CCOC(=O)C(C#N)(CC)C1=CCCCC1 (stereo not given)
inactive: [23] 106 % of control | dose: 100.0 mg/kg/injection, schedule: Q04DX003 (ip), vehicle: Klucel (hydroxypropylcellulose) (HPC) 97 % of control | [24] 93 % of control | [25] 97 % of control | [26] 97 % of control | [27] 102 % of control

Cc1c(C(=O)NN)sc2ccccc12
inactive: dose: 5.0 mg/kg/injection, schedule: Q01DX001 (ip), vehicle: saline 100 % of control | [28] 97 % of control | dose: 20.0 mg/kg/injection, schedule: Q01DX001 (ip), vehicle: saline 100 % of control | dose: 40.0 mg/kg/injection, schedule: Q01DX001 (ip), vehicle: saline 97 % of control | dose: 80.0 mg/kg/injection, schedule: Q01DX001 (ip), vehicle: saline 94 % of control

ClCC1=NC2C(Cl)C(Cl)C(Cl)C(Cl)C2N1 (stereo not given)
inactive: [15] 111 % of control | dose: 200.0 mg/kg/injection, schedule: Q04DX002 (ip), vehicle: Klucel (hydroxypropylcellulose) (HPC) 100 % of control | dose: 400.0 mg/kg/injection, schedule: Q04DX002 (ip), vehicle: Klucel (hydroxypropylcellulose) (HPC) 100 % of control

CCOC(=O)CC(=O)C1CCCCC1
inactive: [19] 95 % of control | [8] 95 % of control | [20] 97 % of control | [21] 95 % of control

Nc1ncnc(N)c1NC(=O)CCCCc1ccccc1
inactive: [5] 100 % of control | [6] 92 % of control | [7] 100 % of control

COC(=O)/C(C)=C\C=C(/C)C(=O)OC
inactive: [5] 100 % of control | [6] 116 % of control | [7] 97 % of control

Cc1nc(Cl)c(C#N)c(C(F)(F)F)c1N
inactive: dose: 100.0 mg/kg/injection, schedule: Q01DX Z (ip), vehicle: carboxymethylcellulose (CMC) 95 % of control

CCOC(CN1C(=O)c2ccccc2C1=O)OCC
inactive: dose: 50.0 mg/kg/injection, schedule: Q01DX009 (ip), vehicle: saline with Tween-80 96 % of control | dose: 100.0 mg/kg/injection, schedule: Q01DX009 (ip), vehicle: saline with Tween-80 96 % of control | dose: 200.0 mg/kg/injection, schedule: Q01DX009 (ip), vehicle: saline with Tween-80 93 % of control

CC(C)(N)CNc1ccccc1
inactive: [22] 98 % of control | [3] 97 % of control | [17] 98 % of control | [4] 92 % of control | [18] 100 % of control | dose: 100.0 mg/kg/injection, schedule: Q04DX003 (ip), vehicle: saline with Tween-80 98 % of control | [5] 105 % of control

NC(=S)c1cccc(OCCc2ccccc2)c1
inactive: [1] 97 % of control | [2] 102 % of control

CC1OC(O[C@@H]2C=C3CC[C@@H]4[C@H](CC[C@]5(C)[C@@H](c6ccc(=O)oc6)CC[C@]45O)[C@@]3(C)CC2)C(O)C(O)C1O (stereo not given in full)
inactive: [28] 101 % of control

Cc1nn(C)c2ccc([N+](=O)[O-])cc12
inactive: [23] 91 % of control | [24] 102 % of control | [25] 97 % of control | [26] 96 % of control | [27] 98 % of control

CCNP(=S)(SCC)SCC
inactive: dose: 100.0 mg/kg/injection, schedule: Q04DX002 (ip), vehicle: saline with Tween-80 96 % of control | dose: 200.0 mg/kg/injection, schedule: Q04DX002 (ip), vehicle: saline with Tween-80 89 % of control | dose: 400.0 mg/kg/injection, schedule: Q04DX002 (ip), vehicle: saline with Tween-80 101 % of control

CCOC(=O)Cc1ccc2[nH]c(C(=O)OCC)cc(=O)c2c1
inactive: [12] 95 % of control | [13] 90 % of control | [14] 95 % of control

O=C(O)c1ccc(OCCc2ccccc2)cc1
inactive: dose: 75.0 mg/kg/injection, schedule: Q01DX001 (ip), vehicle: saline 98 % of control | [9] 103 % of control | dose: 150.0 mg/kg/injection, schedule: Q01DX001 (ip), vehicle: saline 98 % of control | [10] 98 % of control | dose: 300.0 mg/kg/injection, schedule: Q01DX001 (ip), vehicle: saline 95 % of control | [11] 93 % of control

CCOC(=O)COc1ccc2c(C)c(CCN(CC)CC)c(=O)oc2c1
inactive: [12] 103 % of control | [13] 92 % of control | [14] 96 % of control
